The text below walks through data of ChEMBL document CHEMBL3991601, “The target landscape of clinical kinase drugs” (Science, 2017).

In experiment [1] the target is Ribosomal protein S6 kinase alpha-4 (Homo sapiens, UniProt O75676).
The target in experiment [2] is cAMP-dependent protein kinase catalytic subunit alpha (Homo sapiens, UniProt P17612).
The target of experiment [3] is Mitogen-activated protein kinase kinase kinase 4 (Homo sapiens, UniProt Q9Y6R4).
Experiment [4] addresses T1, Mitogen-activated protein kinase kinase kinase 3 (Homo sapiens, UniProt Q99759).
T1 sequence (Q99759 whole entry): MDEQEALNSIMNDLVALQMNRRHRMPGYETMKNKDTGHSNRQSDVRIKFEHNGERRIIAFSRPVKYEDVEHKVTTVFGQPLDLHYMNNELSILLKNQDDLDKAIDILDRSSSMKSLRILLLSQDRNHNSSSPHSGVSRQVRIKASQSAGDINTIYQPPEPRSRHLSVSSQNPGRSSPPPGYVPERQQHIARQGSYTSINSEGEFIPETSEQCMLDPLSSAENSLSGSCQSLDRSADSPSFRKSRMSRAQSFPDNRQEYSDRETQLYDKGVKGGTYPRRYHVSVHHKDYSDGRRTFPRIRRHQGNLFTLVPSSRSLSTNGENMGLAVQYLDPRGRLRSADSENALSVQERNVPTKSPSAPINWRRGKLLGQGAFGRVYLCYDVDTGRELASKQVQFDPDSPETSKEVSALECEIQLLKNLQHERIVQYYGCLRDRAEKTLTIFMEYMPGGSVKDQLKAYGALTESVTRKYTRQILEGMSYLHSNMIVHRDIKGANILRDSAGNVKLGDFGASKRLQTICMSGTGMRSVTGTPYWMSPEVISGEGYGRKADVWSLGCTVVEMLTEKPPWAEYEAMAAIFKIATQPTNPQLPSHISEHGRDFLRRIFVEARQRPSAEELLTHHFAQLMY

In experiment [5] the target is T2, Serine/threonine-protein kinase ULK1 (Homo sapiens, UniProt O75385).
T2 sequence (O75385 whole entry): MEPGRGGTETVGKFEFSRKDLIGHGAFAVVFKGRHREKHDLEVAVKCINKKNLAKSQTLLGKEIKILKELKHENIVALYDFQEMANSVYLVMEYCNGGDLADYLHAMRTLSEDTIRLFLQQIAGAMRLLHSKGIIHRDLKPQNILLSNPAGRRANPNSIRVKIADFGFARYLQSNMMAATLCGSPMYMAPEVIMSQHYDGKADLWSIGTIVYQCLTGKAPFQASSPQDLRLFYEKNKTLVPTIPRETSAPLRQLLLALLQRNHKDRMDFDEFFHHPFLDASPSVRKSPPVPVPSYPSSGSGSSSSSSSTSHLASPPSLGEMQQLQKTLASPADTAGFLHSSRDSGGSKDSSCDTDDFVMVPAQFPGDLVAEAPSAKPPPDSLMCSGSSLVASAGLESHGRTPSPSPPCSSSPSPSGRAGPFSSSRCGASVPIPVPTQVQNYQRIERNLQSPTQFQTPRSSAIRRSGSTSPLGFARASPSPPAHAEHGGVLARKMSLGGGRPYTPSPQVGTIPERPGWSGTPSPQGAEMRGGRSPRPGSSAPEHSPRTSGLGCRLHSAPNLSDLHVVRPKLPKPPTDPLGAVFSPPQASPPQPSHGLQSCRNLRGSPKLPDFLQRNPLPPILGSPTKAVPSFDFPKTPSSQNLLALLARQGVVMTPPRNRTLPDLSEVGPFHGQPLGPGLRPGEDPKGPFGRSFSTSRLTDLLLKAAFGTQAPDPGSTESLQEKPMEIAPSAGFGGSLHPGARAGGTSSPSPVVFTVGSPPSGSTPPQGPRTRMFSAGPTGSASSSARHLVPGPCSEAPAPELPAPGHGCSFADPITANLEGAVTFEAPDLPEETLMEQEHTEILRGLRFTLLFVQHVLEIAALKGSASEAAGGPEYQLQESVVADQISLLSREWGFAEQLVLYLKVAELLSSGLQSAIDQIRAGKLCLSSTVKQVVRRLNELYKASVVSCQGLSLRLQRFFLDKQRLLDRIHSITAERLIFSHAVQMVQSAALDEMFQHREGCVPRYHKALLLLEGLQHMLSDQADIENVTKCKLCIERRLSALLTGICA

Experiment [6] addresses 5'-AMP-activated protein kinase catalytic subunit alpha-1 (Homo sapiens, UniProt Q13131).
Experiment [7] deals with T3, Phenylalanine--tRNA ligase beta subunit (Homo sapiens, UniProt Q9NSD9).
T3 sequence (Q9NSD9 whole entry): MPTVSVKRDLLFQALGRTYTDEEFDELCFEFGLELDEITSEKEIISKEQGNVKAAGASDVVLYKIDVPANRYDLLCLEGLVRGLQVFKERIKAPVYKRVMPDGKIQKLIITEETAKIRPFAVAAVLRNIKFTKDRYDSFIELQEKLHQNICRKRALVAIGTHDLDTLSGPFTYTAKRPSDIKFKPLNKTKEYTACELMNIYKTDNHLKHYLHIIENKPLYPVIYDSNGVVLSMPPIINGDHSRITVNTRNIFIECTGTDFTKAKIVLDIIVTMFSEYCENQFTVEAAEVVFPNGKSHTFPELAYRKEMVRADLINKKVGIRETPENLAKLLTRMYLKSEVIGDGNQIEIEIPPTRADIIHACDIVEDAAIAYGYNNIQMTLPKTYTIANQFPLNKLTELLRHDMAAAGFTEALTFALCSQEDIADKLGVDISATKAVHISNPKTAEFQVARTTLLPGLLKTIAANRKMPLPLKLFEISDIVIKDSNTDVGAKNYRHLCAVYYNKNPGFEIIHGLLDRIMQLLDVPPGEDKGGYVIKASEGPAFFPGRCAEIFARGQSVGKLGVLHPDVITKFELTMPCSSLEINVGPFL

Experiment [8] addresses T4, TGF-beta receptor type-1 (Homo sapiens, UniProt P36897).
T4 sequence (P36897 whole entry): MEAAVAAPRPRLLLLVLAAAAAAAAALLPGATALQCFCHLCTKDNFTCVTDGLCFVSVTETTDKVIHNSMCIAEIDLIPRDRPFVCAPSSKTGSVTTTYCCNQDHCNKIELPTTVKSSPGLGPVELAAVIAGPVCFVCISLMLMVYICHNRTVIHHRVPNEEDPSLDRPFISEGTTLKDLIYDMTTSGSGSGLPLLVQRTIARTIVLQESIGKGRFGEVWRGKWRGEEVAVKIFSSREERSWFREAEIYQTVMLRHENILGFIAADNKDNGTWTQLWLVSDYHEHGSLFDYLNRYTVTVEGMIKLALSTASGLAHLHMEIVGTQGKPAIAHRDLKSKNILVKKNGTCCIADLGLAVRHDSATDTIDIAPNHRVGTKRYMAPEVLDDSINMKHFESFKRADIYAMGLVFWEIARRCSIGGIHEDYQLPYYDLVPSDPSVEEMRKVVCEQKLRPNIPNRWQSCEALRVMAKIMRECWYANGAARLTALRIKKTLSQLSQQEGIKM

Active and inactive are the calls of the source. Cut-off read from the data, not from the text of the source, for most assays here: actives have a measured Kd and inactives only a lower limit.
Note: in the data inactive means no Kd found up to 30 µM.

Sequence of Ribosomal protein S6 kinase alpha-4 (O75676 whole entry): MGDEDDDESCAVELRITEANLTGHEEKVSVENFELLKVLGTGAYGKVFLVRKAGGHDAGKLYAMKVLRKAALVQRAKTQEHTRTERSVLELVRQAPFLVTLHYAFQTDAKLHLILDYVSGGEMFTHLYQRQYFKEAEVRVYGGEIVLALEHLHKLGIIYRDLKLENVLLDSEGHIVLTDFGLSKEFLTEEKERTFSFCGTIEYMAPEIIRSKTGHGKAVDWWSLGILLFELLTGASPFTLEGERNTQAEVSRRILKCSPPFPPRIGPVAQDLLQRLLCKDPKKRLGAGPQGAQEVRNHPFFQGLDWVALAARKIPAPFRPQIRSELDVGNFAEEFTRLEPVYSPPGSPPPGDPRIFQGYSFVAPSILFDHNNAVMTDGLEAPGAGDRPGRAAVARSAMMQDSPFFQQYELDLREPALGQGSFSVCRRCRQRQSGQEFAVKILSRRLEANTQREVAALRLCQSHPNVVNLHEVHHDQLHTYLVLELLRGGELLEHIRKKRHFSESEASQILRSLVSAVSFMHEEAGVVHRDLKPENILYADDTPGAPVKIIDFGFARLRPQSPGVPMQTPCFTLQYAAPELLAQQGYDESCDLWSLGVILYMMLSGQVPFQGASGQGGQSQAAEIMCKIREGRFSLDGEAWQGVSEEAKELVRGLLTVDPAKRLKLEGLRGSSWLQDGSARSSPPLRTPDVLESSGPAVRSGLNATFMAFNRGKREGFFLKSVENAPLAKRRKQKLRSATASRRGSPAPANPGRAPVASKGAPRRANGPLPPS
Sequence of 5'-AMP-activated protein kinase catalytic subunit alpha-1 (Q13131 whole entry): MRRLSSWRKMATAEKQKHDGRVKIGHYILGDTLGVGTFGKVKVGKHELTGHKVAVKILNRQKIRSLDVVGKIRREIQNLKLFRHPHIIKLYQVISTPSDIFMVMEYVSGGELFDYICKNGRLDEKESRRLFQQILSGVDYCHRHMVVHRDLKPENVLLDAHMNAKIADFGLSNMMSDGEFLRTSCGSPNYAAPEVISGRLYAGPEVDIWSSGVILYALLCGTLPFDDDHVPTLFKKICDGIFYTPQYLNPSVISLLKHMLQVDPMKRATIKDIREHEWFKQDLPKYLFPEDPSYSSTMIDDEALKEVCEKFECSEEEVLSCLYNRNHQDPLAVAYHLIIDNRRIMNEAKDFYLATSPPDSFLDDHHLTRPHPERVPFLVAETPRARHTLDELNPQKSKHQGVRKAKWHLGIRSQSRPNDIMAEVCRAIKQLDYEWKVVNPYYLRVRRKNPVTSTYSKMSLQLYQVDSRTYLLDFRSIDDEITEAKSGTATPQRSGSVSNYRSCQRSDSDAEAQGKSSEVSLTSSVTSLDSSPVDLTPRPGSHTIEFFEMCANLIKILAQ
Sequence of Mitogen-activated protein kinase kinase kinase 4 (Q9Y6R4 whole entry): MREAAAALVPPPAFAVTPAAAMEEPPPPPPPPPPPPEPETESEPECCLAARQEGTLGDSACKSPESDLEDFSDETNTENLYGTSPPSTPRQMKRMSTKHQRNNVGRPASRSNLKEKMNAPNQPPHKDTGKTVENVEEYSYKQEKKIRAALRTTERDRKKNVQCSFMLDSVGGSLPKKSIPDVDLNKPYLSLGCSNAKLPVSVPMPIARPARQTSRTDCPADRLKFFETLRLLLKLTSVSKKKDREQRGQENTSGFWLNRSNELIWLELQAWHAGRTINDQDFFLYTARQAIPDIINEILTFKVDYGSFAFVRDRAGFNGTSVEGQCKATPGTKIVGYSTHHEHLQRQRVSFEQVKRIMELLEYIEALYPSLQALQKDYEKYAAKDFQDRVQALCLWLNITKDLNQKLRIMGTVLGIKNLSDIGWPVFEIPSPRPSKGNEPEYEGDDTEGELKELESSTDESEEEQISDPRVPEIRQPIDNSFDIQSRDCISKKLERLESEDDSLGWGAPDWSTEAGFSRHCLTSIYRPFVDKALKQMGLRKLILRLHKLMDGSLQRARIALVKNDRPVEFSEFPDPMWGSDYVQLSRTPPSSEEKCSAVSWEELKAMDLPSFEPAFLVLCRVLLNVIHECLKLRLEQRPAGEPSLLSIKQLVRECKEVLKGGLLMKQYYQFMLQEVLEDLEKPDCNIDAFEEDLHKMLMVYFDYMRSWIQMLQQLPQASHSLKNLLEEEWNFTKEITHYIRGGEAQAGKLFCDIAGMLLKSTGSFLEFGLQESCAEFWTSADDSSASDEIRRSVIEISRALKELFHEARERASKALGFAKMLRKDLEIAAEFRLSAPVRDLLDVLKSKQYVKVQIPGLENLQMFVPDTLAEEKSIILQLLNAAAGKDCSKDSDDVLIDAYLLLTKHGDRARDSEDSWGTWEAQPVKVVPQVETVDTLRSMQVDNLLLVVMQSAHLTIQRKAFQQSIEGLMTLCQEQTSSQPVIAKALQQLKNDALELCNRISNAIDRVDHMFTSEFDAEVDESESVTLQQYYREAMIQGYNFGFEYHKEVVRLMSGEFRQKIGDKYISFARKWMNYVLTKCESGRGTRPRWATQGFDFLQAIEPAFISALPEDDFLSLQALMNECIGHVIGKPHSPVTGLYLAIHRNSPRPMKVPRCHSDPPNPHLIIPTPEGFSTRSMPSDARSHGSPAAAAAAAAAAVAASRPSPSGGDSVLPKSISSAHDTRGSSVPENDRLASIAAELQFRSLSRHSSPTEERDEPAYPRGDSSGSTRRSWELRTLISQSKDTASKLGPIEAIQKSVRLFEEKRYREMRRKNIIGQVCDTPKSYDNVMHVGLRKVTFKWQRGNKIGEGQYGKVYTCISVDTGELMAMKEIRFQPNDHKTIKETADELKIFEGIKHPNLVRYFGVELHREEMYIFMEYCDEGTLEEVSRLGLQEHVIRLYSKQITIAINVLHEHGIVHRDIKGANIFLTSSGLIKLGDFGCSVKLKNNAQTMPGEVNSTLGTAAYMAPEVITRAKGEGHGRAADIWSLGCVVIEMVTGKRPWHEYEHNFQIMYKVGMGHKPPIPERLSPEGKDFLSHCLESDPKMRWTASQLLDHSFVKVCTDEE

What is called Kd is the free concentration of one partner at which half of the binding sites on the other are occupied at equilibrium, for simple one-to-one binding. For `O=C1NC(=O)[C@@H](c2cn3c4c(cccc24)CCC3)[C@@H]1c1c[nH]c2ccccc12` [TIVANTINIB], the Kd in experiment [1], in experiment [2], in experiment [3], in experiment [4], in experiment [5] and in experiment [6] was > 30 µM (inactive) throughout. Further, the Kd in experiment [7] and in experiment [8] was > 30 µM (inactive) throughout.
Turning to `C[C@@H](NC(=O)c1ncnc(N)c1Cl)c1ncc(C(=O)Nc2cc(C(F)(F)F)c(Cl)cn2)s1` [TOVORAFENIB], the Kd in experiment [1], in experiment [2], in experiment [3], in experiment [4], in experiment [5] and in experiment [6] was > 30 µM (inactive) each time. The Kd in experiment [7] and in experiment [8] was > 30 µM (inactive) throughout.
On to `Cc1cc(Nc2ncnc3ccc(NC4=NC(C)(C)CO4)cc23)ccc1Oc1ccn2ncnc2c1` [TUCATINIB], for which the Kd in experiment [1], in experiment [2], in experiment [3], in experiment [4], in experiment [5] and in experiment [6] was > 30 µM (inactive) throughout. Further, the Kd in experiment [7] and in experiment [8] was > 30 µM (inactive) in each case.
For the molecule `Cn1ncc(Cl)c1-c1cc(C(=O)N[C@H](CN)Cc2ccc(F)c(F)c2)oc1Cl` [UPROSERTIB], the Kd in experiment [1] is > 30 µM (inactive); in experiment [2], 0.01 µM (active); in experiment [3] it was > 30 µM (inactive); in experiment [4], > 30 µM (inactive); in experiment [5] it was > 30 µM (inactive); in experiment [6], > 30 µM (inactive). The Kd in experiment [7] and in experiment [8] was > 30 µM (inactive) in each case.
For the molecule `C[C@@H](N)c1ccc(C(=O)Nc2ccnc3[nH]ccc23)cc1` [Y-39983], the Kd is > 30 µM (inactive) in experiment [1]; 23.2 µM (active) in experiment [2]; > 30 µM (inactive) in experiment [3]; > 30 µM (inactive) in experiment [4]; > 30 µM (inactive) in experiment [5]; > 30 µM (inactive) in experiment [6]. Also, the Kd in experiment [7] and in experiment [8] was > 30 µM (inactive) throughout.
Consider `CN1C/C=C/CCOc2cccc(c2)-c2ccnc(n2)Nc2cccc(c2)C1` [ZOTIRACICLIB], for which the Kd in experiment [1], in experiment [2], in experiment [3], in experiment [4], in experiment [5] and in experiment [6] was > 30 µM (inactive) each time. Also, the Kd in experiment [7] and in experiment [8] was > 30 µM (inactive) each time.
